Like-named read-outs stand apart in the source and are kept apart here.
What was measured:
[1] = test system: LPS-induced NF-κB activity in THP1-Blue cells; assay: Inhibition of LPS-induced NF-κB transcriptional activity, alkaline phosphatase reporter, THP1-Blue cells; assay type: cell-based, human; conditions: for IC50: Homo sapiens, LPS-induced NF-κB activity, human THP1-Blue cells, N.A. = no activity at 50 µM; for Observed class for inhibition of NF-κB activity: experimentally observed, Active or N.A.; for Inhibition of LPS-induced NF-κB activity (in words): THP1-Blue cells, 250 ng/mL LPS, 24 h
Method: (§1) Our studies included 175 compounds that were previously synthesized and characterized at NEUROFARBA, Pharmaceutical and Nutraceutical Section, University of Florence, Italy. We previously evaluated the FPR1/FPR2 agonist activity of these compounds by evaluating their ability to induce Ca^2+ mobilization in FPR-transfected HL60 cells and human neutrophils. […] All test compounds were dissolved in DMSO at stock concentrations of 10 mM and stored at −20 °C. For primary screening assays (analysis of NF-κB activation, IL-6 production, and cytotoxicity), the following final concentrations of the compounds were used: 3.125, 6.25, 12.5, 25, and 50 µM; the final concentration of DMSO was 1% in all samples.
The activation of NF-κB was measured using an alkaline phosphatase reporter assay in human monocytic THP1-Blue cells stably transfected with a secreted embryonic alkaline phosphatase gene that is under the control of a promoter inducible by the NF-κB. The THP1-Blue cells (2 × 10^5 cells/well) were pretreated with the test compound or DMSO for 30 min, followed by an addition of 250 ng/mL LPS for 24 h. Alkaline phosphatase activity was determined in cell supernatants using a QUANTI-Blue mix (InvivoGen) and measured at 655 nm and compared with positive control samples (LPS).

[2] = test system: LPS-induced IL-6 production in MonoMac-6 cells; assay: Inhibition of LPS-induced IL-6 production in MonoMac-6 cells (ELISA); assay type: cell-based, human; conditions: for IC50: Homo sapiens, MONO-MAC-6, read-out: Inhibition of IL-6 Production IC50 in MonoMac-6 Cells; for Inhibition of LPS-induced IL-6 production (in words): MonoMac-6 cells, 250 ng/mL LPS, 24 h
Method: as §1
A human IL-6 ELISA kit (BD Biosciences, San Jose, CA, USA) was used to measure IL-6 production. […] The cells were pretreated with the test compound or DMSO for 30 min, followed by addition of 250 ng/mL LPS for 24 h. The IC50 values for IL-6 production were calculated by plotting the percentage inhibition against the logarithm of the inhibitor concentration (at least five points).

[3] = Cytotoxicity, CellTiter-Glo, THP1-Blue cells; assay type: cell-based, human; conditions: human, THP1-Blue cells; N.T. = no cytotoxicity at 50 µM; read-out: Cytotoxicity IC50 in THP1-Blue Cells
Method: as §1
(§2) The cytotoxicity was analyzed with a CellTiter-Glo Luminescent Cell Viability Assay Kit from Promega (Madison, WI, USA), according to the manufacturer’s protocol. The luminescent ATP assays are based on a luciferase enzymatic reaction which uses ATP from viable cells to generate photons. For this assay, the cells were incubated with the compounds under investigation for 24 h. After treatment, the cells were equilibrated to room temperature for 30 min, luciferase + luciferin substrate was added, and the samples were analyzed with a Fluoroscan Ascent FL (Thermo Fisher Scientific, Waltham, MA, USA). The IC50 values were calculated by plotting the percentage inhibition against the logarithm of the inhibitor concentration (at least five points).

[4] = Cytotoxicity, CellTiter-Glo, MonoMac-6 cells; assay type: cell-based, human; conditions: human, MonoMac-6 cells
Method: as §1, §2

[5] = target: T1, FPR1 (Homo sapiens, UniProt P21462); conditions: FPR1-transfected HL-60 cells, read-out: Ca2+ Mobilization FPR1 EC50 in HL-60 Cells, cited from earlier work
T1 construct: expressed in transfected cells; host or cells: HL-60 cells (FPR1-HL60)
T1 sequence (P21462 1-350): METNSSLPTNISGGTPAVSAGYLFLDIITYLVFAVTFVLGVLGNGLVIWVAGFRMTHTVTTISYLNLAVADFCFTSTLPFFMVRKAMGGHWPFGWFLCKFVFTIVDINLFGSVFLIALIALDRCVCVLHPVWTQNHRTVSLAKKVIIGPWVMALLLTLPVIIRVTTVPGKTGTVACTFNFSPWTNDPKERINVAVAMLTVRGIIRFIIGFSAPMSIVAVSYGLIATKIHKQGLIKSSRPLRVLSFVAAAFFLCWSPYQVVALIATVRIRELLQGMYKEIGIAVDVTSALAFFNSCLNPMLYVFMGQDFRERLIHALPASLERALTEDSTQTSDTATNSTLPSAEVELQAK

[6] = target: T2, FPR2 (Homo sapiens, UniProt P25090); conditions: FPR2-transfected HL-60 cells, read-out: Ca2+ Mobilization FPR2 EC50 in HL-60 Cells, cited from earlier work
T2 construct: expressed in transfected cells; host or cells: HL-60 cells (FPR2-HL60)
T2 sequence (P25090 1-351): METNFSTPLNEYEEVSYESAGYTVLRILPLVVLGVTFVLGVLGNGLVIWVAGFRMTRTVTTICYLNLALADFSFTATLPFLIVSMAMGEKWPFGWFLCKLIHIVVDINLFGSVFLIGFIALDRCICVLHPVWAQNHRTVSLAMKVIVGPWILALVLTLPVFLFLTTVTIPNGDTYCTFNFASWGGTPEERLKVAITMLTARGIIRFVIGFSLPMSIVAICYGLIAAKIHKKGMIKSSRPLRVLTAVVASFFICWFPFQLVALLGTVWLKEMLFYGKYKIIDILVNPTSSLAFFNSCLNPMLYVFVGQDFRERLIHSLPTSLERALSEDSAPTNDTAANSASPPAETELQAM

[7] = Table 3, as reported previously (see Table 1)

SMILES	IC50 [1] [µM]	Observed class for inhibition of NF-κB activity [1]	IC50 [2] [µM]	Inhibition of LPS-induced IL-6 production (in words) [2]	IC50 at 24 h [3] [µM]	IC50 at 24 h [4] [µM]	EC50 ([5]; agonist activity from Table 1) [µM]	EC50 [5, 7] [µM]	EC50 ([6]; agonist activity from Table 1) [µM]	EC50 [6, 7] [µM]	Inhibition of LPS-induced NF-κB activity (in words) [1]
COc1cccc(Cc2cc(C)nn(CC(=O)Nc3cccc(Br)c3)c2=O)c1 [Compound 2]	44.5 ± 2.5	Active	30.7 ± 3.6	inhibitors of IL-6 production	> 50	> 50					
COc1cccc(Cc2cc(C(C)C)nn(CC(=O)Nc3ccc(Br)cc3)c2=O)c1 [Compound 10]	22 ± 1.7	Active	8.7 ± 1.6		> 50	> 50					
Cc1cc(Cc2cccc(Cl)c2)c(=O)n(CC(=O)Nc2ccc(I)cc2)n1 [Compound 23]	7.1 ± 2	Active	13.1 ± 0.3		> 50	> 50					
COc1ccc(-c2cc(Cc3cccc(OC)c3)c(=O)n(CC(=O)Nc3ccc(F)cc3)n2)cc1 [Compound 38]	19.6 ± 4.3	Active	20.3 ± 1.8	inhibitors of IL-6 production	> 50	> 50	> 50	> 50	> 50	> 50	
COc1cccc(Cc2cc(-c3ccc(Cl)cc3)nn(CC(=O)Nc3ccc(F)cc3)c2=O)c1 [Compound 42]	22.5 ± 2.3		35.6 ± 3.1	inhibitors of IL-6 production	> 50	> 50	> 50	> 50	> 50	> 50	active
COc1cccc(Cc2cc(-c3ccc(C)cc3)nn(CC(=O)Nc3ccc(F)cc3)c2=O)c1 [Compound 46]	8.2 ± 1.2		> 50	inhibitors of IL-6 production	> 50	> 50	> 50	> 50	> 50	> 50	active
COc1cccc(Cc2cc(-c3ccc(F)cc3)nn(CC(=O)Nc3ccc(F)cc3)c2=O)c1 [Compound 47]	3.4 ± 0.2		18.8 ± 2.9	inhibitors of IL-6 production	> 50	> 50	> 50	> 50	> 50	> 50	active
CCc1c(C)nn(CC(=O)Nc2ccc(Br)cc2)c(=O)c1Cc1cccc(OC)c1 [Compound 78]	20.7 ± 0.7	Active	17 ± 0.4		> 50	> 50		3.2		1.9	
CCCc1c(C)nn(CC(=O)Nc2ccc(Br)cc2)c(=O)c1Cc1cccc(OC)c1 [Compound 79]	15.7 ± 1.4	Active	13.7 ± 1.4		> 50	> 50	2.2		4.6		
CCCCc1c(C)nn(CC(=O)Nc2ccc(Br)cc2)c(=O)c1Cc1cccc(OC)c1 [Compound 80]	15 ± 1.5	Active	33.5 ± 2.4		> 50	> 50	> 50	> 50		15.7	
CCCc1c(C)nn(CC(=O)Nc2ccc(Br)cc2)c(=O)c1Nc1cccc(OC)c1 [Compound 83]	14.6 ± 1.4	Active	15.2 ± 0.2	inhibitors of IL-6 production	> 50	> 50	> 50	> 50	> 50	> 50	
COc1cccc(Cc2cc(C)nn(C(C)(C)C(=O)Nc3ccc(Br)cc3)c2=O)c1 [Compound 89]	29.2 ± 1	Active	27.9 ± 2.2		> 50	> 50	6.3	6.3	20.4	20.4	
CC[C@H](C(=O)Nc1ccc(Br)cc1)n1nc(C)cc(Cc2cccc(OC)c2)c1=O [Compound 94]	30.8 ± 6.7		14.3 ± 2		> 50	> 50	2.8	2.8	2.3	2.3	
COc1cccc(-c2cc(C#N)c(=O)n(CC(=O)Nc3ccc(Br)cc3)c2C)c1 [Compound 141]	15.3 ± 4.9	Active	24.5 ± 0.8		> 50	> 50					
